Series [1] has as its system interaction between FREP1 and P. falciparum-infected cell lysate. In words: ELISA of FREP1 binding to P. falciparum-infected cell lysate. The conditions noted are these: pulixin 5 μg/mL. The protocol:
Small molecules that inhibited the FREP1-Plasmodium interaction to block malaria transmission were screened. In brief, P. falciparum-infected (NF54 obtained from the BEI Resources, Manassas, Va., USA) red blood cells (iRBCs) were cultured for 15-17 days. The iRBCs suspended in PBST (PBS containing 0.2% Tween-20) was homogenized by ultra-sonication with six cycles of 10 s of pulse and 50 s of resting on ice for each period. The lysates were centrifuged at 8,000×g for 2 min to remove insoluble materials and cellular debris. Then, 96-well ELISA plates were coated with 50 μL of the iRBC lysate (2 mg/mL protein) overnight at 4° C. After coating, the wells were blocked with 100 μL of 2% bovine serum albumin (BSA) in PBS per well for 1.5 h at room temperature (RT). After removal of the blocking solution, 49 μL of FREP1 (10 μg/mL) in blocking buffer (PBS containing 2% BSA) and 1 μL of fungal extract (2 mg/mL in DMSO) were added to each well, followed by incubation for 1 h at RT. […] Finally, each well was developed with 50 μL of pNPP substrate (Sigma-Aldrich) until the colors were visible, and absorbance at 405 nm was measured. […]
The 15-17-day cultured P. falciparum infected cell lysate was prepared as described above. […] Rabbit anti-FREP1 polyclonal antibodies quantified the retained FREP1 as described above. After reaction with the pNPP, A405 was measured. […]
In general terms: In an ELISA, binding on a coated surface is turned into a signal by an enzyme label.

Series [2] deals with P. falciparum transmission to An. gambiae. In words: Standard membrane feeding assay (SMFA), transmission-blocking activity by feeding. It is filed as in vivo. On the procedure: The 15-17-day-old cultured P. falciparum iRBCs containing 2-3% stage V gametocytes were collected and diluted with new O+ type human blood, with the same volume of heat-inactivated AB+ human serum added. The final concentration of stage V gametocytes in the blood was around 0.2%. Then, 3 μL of the candidate fungal extract or pulixin with different concentrations in DMSO was mixed with 297 μL of infected blood and was used to feed about 100 3-5-day-old An. gambiae G3 female mosquitoes for 30 min, and the engorged mosquitoes were maintained with 8% sugar in a BSL-2 insectary (28° C., 12 h light/dark cycle, 80% humidity). The midguts were dissected 7 days after infection and stained with 0.1% mercury dibromofluorescein disodium salt in PBS. The oocysts were counted under a light microscope.

The subject of series [3] is P. falciparum gametocytes. In words: Conversion ratio from gametocytes to ookinetes. It is filed as cell-based. The conditions noted are these: pulixin 40 μM. The protocol: P. falciparum (NF54) was cultured in the complete RPMI-1640 medium containing 4% new 0+ human red blood cells, 10% human AB+ serum, and 12.5 μg/mL of hypoxanthine in a candle jar at 37° C. To prepare P. falciparum ookinetes, 5 mL of day-15 cultured P. falciparum containing ˜2% stage V gametocytes were transferred into a 15 mL centrifuge tube and centrifuged at 650×g for 5 min at RT. The pellet was then resuspended in 500 μL of sterile ookinete culture medium (RPMI-1640 medium containing 20% human serum AB+, 50 μg/mL of hypoxanthine, 2 g/L NaHCO3). The resuspended cells were transferred into a well of a 12-well plate and incubated at room temperature on a shaker (20 rpm) for 24 h to generate ookinetes. Finally, cell mixtures of the ookinetes, gametocytes, and asexual-stage P. falciparum were collected by centrifugation at 650×g for 5 min at RT.
The 15-17-day-old cultured P. falciparum was collected by centrifugation at 500×g for 3 min. The pellets were suspended in ookinete culture medium (incomplete RPMI-1640 containing 20% human serum AB+, 50 μg/mL of hypoxanthine, and 2 g/L of NaHCO3) to obtain 10^5 gametocytes per μL. […] After incubation on a shaker (20 rpm) at RT for 18-24 h, the ookinetes and gametocytes were counted using a Giemsa-stained blood smear under a bright-field microscope. The ratios of gametocytes to ookinetes were calculated.

In series [4] the test system is asexual-stage P. falciparum. In words: Inhibition assay of asexual Plasmodium falciparum proliferation. It is filed as cell-based. The protocol:
The 3-5-day cultured iRBC were mixed with fresh human RBCs (AB+ type) in complete RPMI-1640 to prepare cultures with 0.5% parasitemia and 2% hematocrit. Pulixin was dissolved in DMSO at the concentration of 1 mg/mL and diluted with DMSO to various levels. A 2 μL pulixin solution mixed with 1 mL of cell culture was added to a 24-well plate. The plate was incubated in a candle jar at 37° C. Approximately 48 h later, the medium was replaced with fresh medium containing same concentration of pulixin. Parasitemia was recorded at 24, 48, 72, and 96 h post-incubation. The test for each concentration was replicated three times. EC50 was determined by analyzing the dose-response curve obtained with GraphPad Prism (GraphPad Software, CA, USA). The assays were repeated.

The test system of series [5] is human embryonic kidney 293 (HEK293) cells. In words: General cytotoxicity MTT assay. Format: cell-based. The conditions noted are these: 24 h. On the procedure:
A drug could kill a cell or inhibit the cell proliferation through general cytotoxicity. Vybrant® MTT (3-(4,5-dimethylthiazol-2-yl)-2,5-diphenyl tetrazolium bromide) Cell Proliferation Assay (Thermo Fisher) was used to analyze living cells. The human embryonic kidney 293 (HEK293) cell line was used as the experimental cells. About 20,000 HEK293 cells in 100 μL of culture medium (RPMI 1640+2 mM glutamine+10% fetal bovine serum) were seeded per well in 96-well microplates. After incubation at 37° C. with 5% CO2 for 24 h, 1 μL of pulixin in DMSO at various dilutions was added into each well to obtain a final concentration of 0, 1, 3, 10, 30, and 100 μg/mL. Three replicates were conducted for each concentration. Following the incubation at 37° C. with 5% CO2 for 24 h, 10 μL, of MTT (5 mg/mL in PBS) was added into each well and incubated for 4 h at 37° C. with 5% CO2. All but 25 μL of the medium was removed from the wells, 100 μL of DMSO was added to each well and incubated at 37° C. for 10 min to dissolve formazan crystals for measurement. Optical density was measured at an absorbance wavelength of 540 nm. The data were analyzed using ANOVA in Prism 8 (GraphPad, San Diego, Calif.). The experiment was independently performed twice.
In general terms: Tetrazolium assays rely on reduction of a dye to a coloured formazan, in cell work by metabolically active cells.

Molecules are shown by their SMILES. Several values for one entry are separate records, joined by “and”; a condition that tells them apart may be missing. Identical values can stand only once. Entries after “also recorded” stand apart in the source; their conditions may differ.

We go through one compound from patent US20230210929A1, “MATERIALS AND METHODS FOR BLOCKING MALARIA INFECTION AND TRANSMISSION” (THE FLORIDA INTERNATIONAL UNIVERSITY BOARD OF TRUSTEES, priority 2021, published 2023).

As for `Cc1cc(N)cc2oc(=O)c3c(O)cc(O)cc3c12` [pulixin, 3-amino-7,9-dihydroxy-1-methyl-6H-benzo[c]chromen-6-one], in series [1], the “inhibition of the interaction between the FREP1 protein and P. falciparum-infected cell lysate” value is “about 50%”. Further, the EC50 was 11 µM in series [2] (Anopheles gambiae, 168 h, read-out: EC50, concentration that inhibits 50% of infection intensity (number of oocysts per mosquito)); 0.012 µg/mL and 47 nM in series [4] (Plasmodium falciparum, 96 h, parasitemia on day 4, read-out: EC50 inhibiting development of asexual-stage P. falciparum). For the same compound, the “inhibition of malaria transmission” value in series [2] (pulixin 40 μM in infected blood) is “completely inhibited; also recorded: completely blocked”. The “conversion of gametocytes to ookinetes versus control” value in series [3] is given as “no significant difference; also recorded: did not inhibit”. For the same compound, the “P. falciparum-infected cells on day 4 versus control (0 μg/mL)” value in series [4] (pulixin greater than 0.01 μg/mL) is reported as “Significantly fewer”. In addition, in series [5] (pulixin 0 to 30 μg/mL (116 μM)), the “density of living HEK293 cells versus control” value is “No significant difference”. Further, the “density of living HEK293 cells versus other concentrations” value in series [5] (pulixin 100 μg/mL) is recorded as “significant reduction; also recorded: significantly lower”.
